The values below come from patent US20080032897A1, “Methods of screening for inhibitors of autoinhibited proteins” (priority 2004, published 2008).

Entries after “also recorded” stand apart in the source; their conditions may differ.

In one experiment the target is T1, WASP (Homo sapiens, UniProt P42768).
T1 sequence (P42768 with tags, fused parts or gaps limits assumed): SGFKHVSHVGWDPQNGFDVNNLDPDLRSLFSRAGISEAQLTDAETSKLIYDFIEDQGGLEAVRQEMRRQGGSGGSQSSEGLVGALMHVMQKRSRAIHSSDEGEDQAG
Conditions: cited from earlier work.

For a further experiment, the system named is N-WASP. Particulars: cited from earlier work.
Experiment [1] has as its system mixed-lineage kinases (MLKs). Particulars: reported; cited from earlier work.
Another experiment concerns Pak. Conditions: reported; cited from earlier work.
The next experiment addresses T2, full-length Pak1 (Homo sapiens, UniProt Q13153).
T2 construct: made in house; host or cells: Sf9 cells
As to the kind of experiment: luminescence-based (Kinase Glo) kinase assay, Cdc42-activated full-length Pak1. Conditions: 384-well plates, ATP-dependent luminescence, FIG. 9C. Format: biochemical. As to the method: In some embodiments, the kinase activity of these two proteins (wild-type full length kinase, and isolated kinase domain) is measured in parallel using a validated luminescence-based assay. In this assay, kinase activity is based on a measurement of the residual ATP in the reaction following kinase-mediated ATP hydrolysis (Kinase Glo®; Promega®). This is an endpoint assay in which kinase reactions are allowed to proceed until a predetermined timepoint at which point the addition of the Kinase Glo® detection mix containing luciferase and luciferin stops the kinase reaction and utilizes the residual ATP to convert luciferin to oxyluciferin with the accompanying emission of a photon of light. Intensity of the emitted light is linearly correlated with ATP concentration. […]
The isolated kinase domain or full-length Pak1 in assay buffer is aliquotted into individual wells of a 384-well plate using a Bio-Tek MicroFill®. […] The reaction is stopped by the addition of Kinase Glo® reagent (15 μl/well), and is incubated at room temperature for 10-30 minutes to allow development of luminescence. Luminescence is read in a Cary Eclipse (Varian®) fluorometer/luminometer outfitted for reading 384-well plates.
A luminescence-based assay for kinase activity is used based on measurement of residual ATP in the reaction following kinase-mediated ATP hydrolysis. […]

T2 sequence (Q13153 whole entry): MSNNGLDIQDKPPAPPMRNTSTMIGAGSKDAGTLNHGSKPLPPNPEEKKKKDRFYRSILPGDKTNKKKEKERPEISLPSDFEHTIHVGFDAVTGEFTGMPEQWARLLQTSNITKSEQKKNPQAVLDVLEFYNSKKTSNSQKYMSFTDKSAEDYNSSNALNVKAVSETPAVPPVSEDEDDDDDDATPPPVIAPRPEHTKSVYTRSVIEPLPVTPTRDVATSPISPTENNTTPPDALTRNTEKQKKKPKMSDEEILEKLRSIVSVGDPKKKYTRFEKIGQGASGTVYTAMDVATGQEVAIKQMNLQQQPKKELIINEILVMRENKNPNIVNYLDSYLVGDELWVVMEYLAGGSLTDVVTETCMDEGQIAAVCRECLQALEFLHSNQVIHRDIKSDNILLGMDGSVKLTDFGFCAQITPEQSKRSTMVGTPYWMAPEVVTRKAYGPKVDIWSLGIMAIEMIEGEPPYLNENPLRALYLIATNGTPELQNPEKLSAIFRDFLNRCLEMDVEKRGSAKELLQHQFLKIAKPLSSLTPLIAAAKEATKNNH

As to `CN(C)C[C@H](O)Cn1c2ccc(Br)cc2c2cc(Br)ccc21` (racemic) [wiskostatin], the “binding site on WASP” value on WASP (NMR structure) was “bound exclusively to the PBD in its autoinhibited conformation”. Further, the “effect on autoinhibited fold of the PBD” value on WASP (biophysical experiments) is “stabilizes the autoinhibited fold of the PBD”. Moreover, the “inhibition of N-WASP” value with N-WASP is “chemical inhibitors of N-WASP”.

In the case of `CCSCc1ccc2c(c1)c1c3c(c4c5cc(CSCC)ccc5n5c4c1n2[C@H]1C[C@](O)(C(=O)OC)[C@]5(C)O1)CNC3=O` [CEP-1347], the “potency against MLKs relative to Pak” value in experiment [1] is “at least an order of magnitude more potent”. Moreover, the “concentration at which Pak is inhibited” value in the experiment with Pak is given as “low micromolar”.

For the molecule `CN[C@@H]1C[C@H]2O[C@@](C)([C@@H]1OC)n1c3ccccc3c3c4c(c5c6ccccc6n2c5c31)C(=O)NC4` [staurosporine], the “inhibition of Pak1 kinase activity” value against full-length Pak1 is “successfully detects inhibition of Pak; also recorded: readily detected”.
